# Reference: patent publication US5130300A, “Method for enhancing growth of mammary parenchyma” (Monsanto Company, priority 1987, dated 1992)
# Columns and labels:
# [1] = test system: Quarter-Udders in Pregnant Beef Cows; assay: Intramammary infusion of bIGF-I, quarter-udder weights and DNA (Examples 14-16); type: in vivo, cross-bred beef cows
# Method: (§1) 24 pregnant, non-lactating, cross-bred beef cows within their last 40-80 days of gestation were housed in a free-stall facility, fed a ration of alfalfa hay and pelleted concentrate, and administered 10 ml of an excipient (a sesame oil emulsion of the kind used in Examples 4-6) into each half-udder by intramammary infusion through the streak canal on days 1, 3, 5, 7 and 9 of this study. The infusion technique, random assignment of half-udders to treatment or control, and treatment vs. control comparisons were as in Examples 1-2. In the treatment infusions, the excipient contained bovine insulin-like growth factor-I (bIGF-I) prepared by expression in E. coli (Prla Strain 079) of recombinant DNA coding for bIGF-I fused to the "lam" B cell wall protein signal sequence, secretion into the E. coli periplasmic space, and recovery/purification by conventional techniques including gel filtration, cation exchange and reverse-phase HPLC. This bIGF-I had the same amino acid sequence and secondary structure as the AMgen human IGF-I used in Example 20. In standard L6 myoblast assays, its activity was essentially the same (90-123%) as that of the Example 20 hIGF-I. The amounts of bIGF-I in each infusion were: Group 1-2.5 micrograms: Group 2-25 micrograms; Group 3-250 micrograms. Animals were prepared and infused, and their quarter-udder weights and DNA were determined as in Example 3-6.
# When the procedures described for Groups 1-3 were repeated, results were essentially the same. Pooling results from the original study and its replication, it was determined that both treatment and control quarter-udders had grown as follows: […]
# L6 myoblast = assay: Standard L6 myoblast assays; type: cell-based
# Method: as §1
# [2] = Group 1: total of 12.5 micrograms bIGF-I
# [3] = Group 1: total of 12.5 micrograms bIGF-I, sesame oil emulsion
# [4] = Group 1: total of 12.5 micrograms bIGF-I, B = excipient only
substance,measurement,setting,value
bIGF-I: bovine insulin-like growth factor-I prepared by expression in E. coli of recombinant DNA,"DNA, Avg % Increase/Animal",[1]; [2],12.5%
same,"Dry Fat-Free Weight, Avg % Increase/Animal",[1]; [2],16.0%
same,"Dry Weight, Avg % Increase/Animal",[1]; [2],8.8%
same,"Wet Weight, Avg % Increase/Animal",[1]; [2],11.0%
same,"DNA, Treatment Mean",[1]; [3],1307 mg
same,"Dry Fat-Free Weight, Treatment Mean",[1]; [3],54.9 g
same,"Dry Weight, Treatment Mean",[1]; [3],111.7 g
same,"Wet Weight, Treatment Mean",[1]; [3],408.4 g
same,"DNA, % Increase, (A-B)/B",[1]; [4],7.2%
same,"DNA, Mean Increase (A-B)",[1]; [4],88 mg
same,"Dry Fat-Free Weight, % Increase, (A-B)/B",[1]; [4],14.2%
same,"Dry Fat-Free Weight, Mean Increase (A-B)",[1]; [4],6.9 g
same,"Dry Weight, % Increase, (A-B)/B",[1]; [4],8.7%
same,"Dry Weight, Mean Increase (A-B)",[1]; [4],9.0 g
same,"Wet Weight, % Increase, (A-B)/B",[1]; [4],10.7%
same,"Wet Weight, Mean Increase (A-B)",[1]; [4],39.4 g
same,Plasma levels of bIGF-I during the study,"[1]; intramammary infusion, pregnant beef cows",did not increase significantly
same,"Growth of quarter-udders combined, Medium vs. Low dose","[1]; pooled original study and replication, 25 vs 2.5 micrograms bIGF-I per infusion, Combined",+25%
same,"Growth of control quarter-udders, Medium vs. Low dose","[1]; pooled original study and replication, 25 vs 2.5 micrograms bIGF-I per infusion, Controls",+27%
same,"Growth of treatment quarter-udders, Medium vs. Low dose","[1]; pooled original study and replication, 25 vs 2.5 micrograms bIGF-I per infusion, Treatment",+23.1%
same,"Growth of quarter-udders combined, High vs. Low dose","[1]; pooled original study and replication, 250 vs 2.5 micrograms bIGF-I per infusion, Combined",+67%
same,"Growth of control quarter-udders, High vs. Low dose","[1]; pooled original study and replication, 250 vs 2.5 micrograms bIGF-I per infusion, Controls",+71.3%
same,"Growth of treatment quarter-udders, High vs. Low dose","[1]; pooled original study and replication, 250 vs 2.5 micrograms bIGF-I per infusion, Treatment",+62%
same,"Growth of quarter-udders combined, High vs. Medium dose","[1]; pooled original study and replication, 250 vs 25 micrograms bIGF-I per infusion, Combined",+33%
same,"Growth of control quarter-udders, High vs. Medium dose","[1]; pooled original study and replication, 250 vs 25 micrograms bIGF-I per infusion, Controls",+34.4%
same,"Growth of treatment quarter-udders, High vs. Medium dose","[1]; pooled original study and replication, 250 vs 25 micrograms bIGF-I per infusion, Treatment",+31.5%
same,Growth of the non-infused quarters,[1]; two higher doses (Groups 2-3),substantial growth
same,Growth of treatment quarters vs. control quarters,[1]; two higher doses (Groups 2-3: 25 and 250 micrograms per infusion),did not produce consistently greater growth of treatment quarters vs. control quarters
same,Activity relative to the Example 20 hIGF-I,L6 myoblast,90-123%
